# According to patent US9428464B2, “Kynurenine-3-monooxygenase inhibitors, pharmaceutical compositions, and methods of use thereof” (CHDI Foundation, Inc., priority 2011, dated 2016):
# System: KMO
# Experiment: KMO activity assay: L-Kynurenine hydroxylation to 3-Hydroxy-Kynurenine, quantified by LC/MS
# Type: biochemical
# Conditions: compound at 10 uM; footnote: some portion of activity of amides may be due to contribution of acid precursor
# Method: A generalized procedure for monitoring L-Kynurenine (KYN) hydroxylation to form product 3-Hydroxy-Kynurenine (3OH-KYN) by LC/MS is described below. Product is quantified by multiple reaction monitoring using MS.
# A method of monitoring L-Kynurenine (KYN) hydroxylation to form product 3-Hydroxy-Kynurenine (3OH-KYN) by LC/MS is described below. Product is quantified by multiple reaction monitoring.
# • Compound: Stock concentrations: 10 mM in 100% DMSO • Enzyme: KMO enzyme prepared at Evotec via mitochondria isolation from CHO-GST HIS KMO cells • Substrate: L-Kynurenine (Sigma: Cat #K3750) • [stock concentration: 10 mM in 100 mM potassium phosphate buffer, pH 7.4]
# A method of monitoring L-Kynurenine (KYN) hydroxylation to form 3-Hydroxy-Kynurenine (3OH-KYN) by LC/MS is described. Product is quantified by multiple reaction monitoring (MRM method).
row,Structure (SMILES),% Inhibition at 10 uM
1,"CC1(C)CC(C(N)=O)C(C)(C)N1C(=O)c1cc(-c2ccc(Cl)c(Cl)c2)ncn1 (centres unmarked) [1-[6-(3,4-Dichloro-phenyl)-pyrimidine-4-carbonyl]-2,2,5,5-tetramemyl-pyrrolidine-3-carboxylic acid amide]",98.27%
2,"NC(=O)C1CCN(C(=O)c2cc(-c3ccc(Cl)c(Cl)c3)ncn2)C1 (centres unmarked) [1-[6-(3,4-Dichloro-phenyl)-pyrimidine-4-carbonyl]-pyrrolidine-3-carboxylic acid amide]",101.835%
3,"O=C(NC1CC1)C1CCN(C(=O)c2cc(-c3ccc(Cl)c(Cl)c3)ncn2)C1 (centres unmarked) [1-[6-(3,4-Dichloro-phenyl)-pyrimidine-4-carbonyl]-pyrrolidine-3-carboxylic acid cyclopropylamide]",91.815%
4,"CNC(=O)C1CCN(C(=O)c2cc(-c3ccc(Cl)c(Cl)c3)ncn2)C1 (centres unmarked) [1-[6-(3,4-Dichloro-phenyl)-pyrimidine-4-carbonyl]-pyrrolidine-3-carboxylic acid methylamide]",83.065%
5,"O=C(O)C1CCN(C(=O)c2cc(-c3ccc(Cl)c(Cl)c3)ncn2)C1 (centres unmarked) [1-[6-(3,4-dichloro-phenyl)-pyrimidine-4-carbonyl]-pyrrolidine-3-carboxylic acid]",101.855%
6,CON=C(C)c1cc(-c2cccc(Cl)c2)ncn1 [1-[6-(3-Chloro-phenyl)-pyrimidin-4-yl]-ethanone O-methyl-oxime],102.2%
7,CC(=O)c1cc(-c2cccc(Cl)c2)ncn1 [1-[6-(3-Chloro-phenyl)-pyrimidin-4-yl]-ethanone],97.49%
8,"O=C(CCN1CCCC1)N1CCN(C(=O)c2cc(-c3ccc(Cl)c(Cl)c3)ncn2)CC1 [1-{4-[6-(3,4-Dichloro-phenyl)-pyrimidine-4-carbonyl]-piperazin-1-yl}-3-pyrrolidin-1-yl-propan-1-one]",68.48%
9,"CC(=O)N1CCN(C(=O)c2cc(-c3ccc(Cl)c(Cl)c3)ncn2)CC1 [1-{4-[6-(3,4-Dichloro-phenyl)-pyrimidine-4-carbonyl]-piperazin-1-yl}-ethanone]",100.06%
10,"O=C(c1cc(-c2ccc(Cl)c(Cl)c2)ncn1)N1CCN2C(=O)CCC2C1 (centres unmarked) [2-[6-(3,4-Dichloro-phenyl)-pyrimidine-4-carbonyl]-hexahydro-pyrrolo[1,2-a]pyrazin-6-one]",97.22%
11,"CC(C)COC(=O)c1cc(-c2ccc(Cl)c(Cl)c2)ncn1 [2-methylpropyl 6-(3,4-dichlorophenyl)pyrimidine-4-carboxylate]",100%
12,"O=C(NS(=O)(=O)c1cccc(Cl)c1)c1cc(-c2ccc(Cl)c(Cl)c2)ncn1 [3-Chloro-N-[6-(3,4-dichloro-phenyl)-pyrimidine-4-carbonyl]-benzenesulfonamide]",102.26%
13,O=C(NS(=O)(=O)c1cccc(Cl)c1)c1cc(-c2cccc(Cl)c2)ncn1 [3-Chloro-N-[6-(3-chloro-phenyl)-pyrimidine-4-carbonyl]-benzenesulfonamide],101.57%
14,"O=C1OCc2c1ncnc2-c1ccc(Cl)c(Cl)c1 [4-(3,4-dichloro-phenyl)-5H-furo[3,4-d]pyrimidin-7-one]",94%
15,"O=C1CN(C(=O)c2cc(-c3ccc(Cl)c(Cl)c3)ncn2)CCN1CCN1CCOCC1 [4-[6-(3,4-Dichloro-phenyl)-pyrimidine-4-carbonyl]-1-(2-morpholin-4-yl-ethyl)-piperazin-2-one]",98.7%
16,"O=C1CN(C(=O)c2cc(-c3ccc(Cl)c(Cl)c3)ncn2)CCN1CCN1CCCC1 [4-[6-(3,4-Dichloro-phenyl)-pyrimidine-4-carbonyl]-1-(2-pyrrolidin-1-yl-ethyl)-piperazin-2-one]",99.275%
17,"O=C1CN(C(=O)c2cc(-c3ccc(Cl)c(Cl)c3)ncn2)CCN1CC1CCOCC1 [4-[6-(3,4-Dichloro-phenyl)-pyrimidine-4-carbonyl]-1-(tetrahydro-pyran-4-ylmethyl)-piperazin-2-one]",99.91%
